Results published in ChEMBL document CHEMBL1158662, “Cochinolide, a new gamma-alkylidene bicyclic butenolide with antiviral activity, and its beta-glucopyranoside from Homalium cochinchinensis” (J Nat Prod, 1998).
In brackets after ≈: the same amount, converted by molar mass. Activity calls are given as the source filed them. The rule behind the calls is not given here.

Tests used:
Human alphaherpesvirus 1 = experiment: Antiviral activity against HSV1; assay type: functional, organism-based
Human alphaherpesvirus 2 = experiment: Antiviral activity against HSV2; assay type: functional, organism-based

EC50 (Human alphaherpesvirus 1)	EC50 (Human alphaherpesvirus 2)	SMILES	Activity (Human alphaherpesvirus 1)	Activity (Human alphaherpesvirus 2)
0.24 µg/mL (≈ 1.07 µM)	0.22 µg/mL (≈ 0.977 µM)	Nc1nc2c(ncn2COCCO)c(=O)[nH]1 [ACYCLOVIR]		
		O=C1OC2=C[C@@H](O[C@@H]3O[C@H](CO)[C@@H](O)[C@H](O)[C@H]3O)CCC2=C1C(O)c1ccccc1 (some centres undefined)	inactive	inactive
